Measurements taken from patent USRE38117E1, “Trioxane dimer compound having antiproliferative and antitumor activities” (Hauser, Inc., priority 1995, dated 2003).

Key:
Format in all cases: cell-based
CCRF-CEM = assay: NCI 60 cell line screen (SRB), Leukemia
HL-60(TB) = assay: NCI 60 cell line screen (SRB), Leukemia; conditions: HL-60(TB) (Leukemia)
RPMI-8226 = assay: NCI 60 cell line screen (SRB), Leukemia; conditions: RPMI-8226 (Leukemia)
A549/ATCC = assay: NCI 60 cell line screen (SRB), Non-Small Cell Lung Cancer
HOP-62 = assay: as above; conditions: HOP-62 (Non-Small Cell Lung Cancer)
HOP-92 = assay: as above; conditions: HOP-92 (Non-Small Cell Lung Cancer)
NCI-H226 = assay: as above
NCI-H23 = assay: as above
HCT-15 = assay: NCI 60 cell line screen (SRB), Colon Cancer; conditions: HCT-15 (Colon Cancer)
SF-539 = assay: NCI 60 cell line screen (SRB), CNS Cancer; conditions: SF-539 (CNS Cancer)
SNB-75 = assay: NCI 60 cell line screen (SRB), CNS Cancer; conditions: SNB-75 (CNS Cancer)
LOX IMVI = assay: NCI 60 cell line screen (SRB), Melanoma
MALME-3M = assay: NCI 60 cell line screen (SRB), Melanoma; conditions: MALME-3M (Melanoma)
M14 = assay: NCI 60 cell line screen (SRB), Melanoma
SK-MEL-28 = assay: NCI 60 cell line screen (SRB), Melanoma; conditions: SK-MEL-28 (Melanoma)
UACC-257 = assay: NCI 60 cell line screen (SRB), Melanoma; conditions: UACC-257 (Melanoma)
UACC-62 = assay: NCI 60 cell line screen (SRB), Melanoma; conditions: UACC-62 (Melanoma)
IGROVI = assay: NCI 60 cell line screen (SRB), Ovarian Cancer
OVCAR-3 = assay: NCI 60 cell line screen (SRB), Ovarian Cancer; conditions: OVCAR-3 (Ovarian Cancer)
OVCAR-5 = assay: NCI 60 cell line screen (SRB), Ovarian Cancer; conditions: OVCAR-5 (Ovarian Cancer)
OVCAR-8 = assay: NCI 60 cell line screen (SRB), Ovarian Cancer; conditions: OVCAR-8 (Ovarian Cancer)
SK-OV-3 = assay: NCI 60 cell line screen (SRB), Ovarian Cancer; conditions: SK-OV-3 (Ovarian Cancer)
A498 = assay: NCI 60 cell line screen (SRB), Renal Cancer
ACHN = assay: NCI 60 cell line screen (SRB), Renal Cancer
CAKI-1 = assay: NCI 60 cell line screen (SRB), Renal Cancer; conditions: CAKI-1 (Renal Cancer)
RXF 393 = assay: NCI 60 cell line screen (SRB), Renal Cancer; conditions: RXF 393 (Renal Cancer)
TK-10 = assay: NCI 60 cell line screen (SRB), Renal Cancer; conditions: TK-10 (Renal Cancer)
UO-31 = assay: NCI 60 cell line screen (SRB), Renal Cancer; conditions: UO-31 (Renal Cancer)
MCF7/ADR-RES = assay: NCI 60 cell line screen (SRB), Breast Cancer
MDA-MB231/ATCC = assay: NCI 60 cell line screen (SRB), Breast Cancer
MDA-N = assay: NCI 60 cell line screen (SRB), Breast Cancer
T-47D = assay: NCI 60 cell line screen (SRB), Breast Cancer; conditions: T-47D (Breast Cancer)
60 cell line panel = assay: NCI 60 cell line screen, values over the whole panel; conditions: mean value over the cell line panel

COC1OC2(C)CCC3CCCC(CCOC(=O)c4cccc(C(=O)OCCC5CCCC6CCC7(C)OOC56C(OC)O7)c4)C31OO2 (centres unmarked) [Compound 10, Trioxane Bis-ester Dimer]
Log10GI50 (CCRF-CEM): −7.15 M
Log10LC50 (CCRF-CEM): >−4.30 M
Log10TGI (CCRF-CEM): −5.70 M
Log10GI50 (HL-60(TB)): −7.21 M
Log10LC50 (HL-60(TB)): >−4.30 M
Log10TGI (HL-60(TB)): −6.56 M
Log10GI50 (RPMI-8226): −6.97 M
Log10LC50 (RPMI-8226): >−4.30 M
Log10TGI (RPMI-8226): −5.73 M
Log10GI50 (A549/ATCC): −5.89 M
Log10LC50 (A549/ATCC): >−4.30 M
Log10TGI (A549/ATCC): >−4.30 M
Log10GI50 (HOP-62): −5.11 M
Log10LC50 (HOP-62): >−4.30 M
Log10TGI (HOP-62): >−4.30 M
Log10GI50 (HOP-92): −6.01 M
Log10LC50 (HOP-92): >−4.30 M
Log10TGI (HOP-92): −4.64 M
Log10GI50 (NCI-H226): −5.64 M
Log10LC50 (NCI-H226): >−4.30 M
Log10TGI (NCI-H226): >−4.30 M
Log10GI50 (NCI-H23): −6.29 M
Log10LC50 (NCI-H23): >−4.30 M
Log10TGI (NCI-H23): >−4.30 M
Log10GI50 (HCT-15): −6.14 M
Log10LC50 (HCT-15): >−4.30 M
Log10TGI (HCT-15): >−4.30 M
Log10GI50 (SF-539): −6.11 M
Log10LC50 (SF-539): >−4.30 M
Log10TGI (SF-539): >−4.30 M
Log10GI50 (SNB-75): −5.56 M
Log10LC50 (SNB-75): >−4.30 M
Log10TGI (SNB-75): >−4.30 M
Log10GI50 (LOX IMVI): −6.27 M
Log10LC50 (LOX IMVI): >−4.30 M
Log10TGI (LOX IMVI): >−4.30 M
Log10GI50 (MALME-3M): −5.56 M
Log10LC50 (MALME-3M): >−4.30 M
Log10TGI (MALME-3M): >−4.30 M
Log10GI50 (M14): −5.08 M
Log10LC50 (M14): >−4.30 M
Log10TGI (M14): >−4.30 M
Log10GI50 (SK-MEL-28): −4.94 M
Log10LC50 (SK-MEL-28): >−4.30 M
Log10TGI (SK-MEL-28): >−4.30 M
Log10GI50 (UACC-257): −5.03 M
Log10LC50 (UACC-257): >−4.30 M
Log10TGI (UACC-257): >−4.30 M
Log10GI50 (UACC-62): −5.68 M
Log10LC50 (UACC-62): >−4.30 M
Log10TGI (UACC-62): >−4.30 M
Log10GI50 (IGROVI): −5.34 M
Log10LC50 (IGROVI): >−4.30 M
Log10TGI (IGROVI): −4.42 M
Log10GI50 (OVCAR-3): −5.53 M
Log10LC50 (OVCAR-3): >−4.30 M
Log10TGI (OVCAR-3): >−4.30 M
Log10GI50 (OVCAR-5): −5.68 M
Log10LC50 (OVCAR-5): >−4.30 M
Log10TGI (OVCAR-5): >−4.30 M
Log10GI50 (OVCAR-8): −6.13 M
Log10LC50 (OVCAR-8): >−4.30 M
Log10TGI (OVCAR-8): >−4.30 M
Log10LC50 (SK-OV-3): >−4.30 M
Log10TGI (SK-OV-3): >−4.30 M
Log10GI50 (A498): >−4.30 M
Log10LC50 (A498): >−4.30 M
Log10TGI (A498): >−4.30 M
Log10GI50 (ACHN): −5.85 M
Log10LC50 (ACHN): >−4.30 M
Log10TGI (ACHN): >−4.30 M
Log10GI50 (CAKI-1): −5.66 M
Log10LC50 (CAKI-1): >−4.30 M
Log10TGI (CAKI-1): >−4.30 M
Log10GI50 (RXF 393): >−4.30 M
Log10LC50 (RXF 393): >−4.30 M
Log10TGI (RXF 393): >−4.30 M
Log10GI50 (TK-10): −5.39 M
Log10LC50 (TK-10): >−4.30 M
Log10TGI (TK-10): >−4.30 M
Log10GI50 (UO-31): −5.96 M
Log10LC50 (UO-31): >−4.30 M
Log10TGI (UO-31): >−4.30 M
Log10GI50 (MCF7/ADR-RES): −5.36 M
Log10LC50 (MCF7/ADR-RES): >−4.30 M
Log10TGI (MCF7/ADR-RES): >−4.0 M
Log10GI50 (MDA-MB231/ATCC): −5.27 M
Log10LC50 (MDA-MB231/ATCC): >−4.30 M
Log10TGI (MDA-MB231/ATCC): >−4.30 M
Log10GI50 (MDA-N): −5.97 M
Log10LC50 (MDA-N): >−4.30 M
Log10TGI (MDA-N): >−4.30 M
Log10GI50 (T-47D): −6.76 M
Log10LC50 (T-47D): >−4.30 M
Log10TGI (T-47D): >−4.30 M
Log10GI50 MG MID (60 cell line panel): −5.77 M
Log10LC50 MG MID (60 cell line panel): −4.30 M
Log10TGI MG MID (60 cell line panel): −4.52 M
